# US20100298141A1, “SUBSTITUTED PYRIDINE N-OXIDE HERBICIDES” (E. I. DU PONT DE NEMOURS AND COMPANY, priority 2007, published 2010)
# Key:
# yellow nutsedge = test: Test C pre-/postemergence test; assay type: in vivo, Cyperus esculentus; conditions: for Plant response rating, Nutsedge, Yellow: 31 g ai/ha, scale 0 to 100 (0 no effect, 100 complete control)
# In short: (§1)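 Compounds in a non-phytotoxic solvent with surfactant applied preemergence to seeded pots and, at the same time, postemergence to plants 2–18 cm tall (1- to 4-leaf stage). Paddy tests: pots flooded to 3 cm, compound applied into the water, depth held throughout.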
# naked crabgrass = test: Test F preemergence test; assay type: in vivo, Digitaria nuda; conditions: scale 0 to 100
# In short: (§2)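 Test chemicals were formulated in a non-phytotoxic solvent mixture with surfactant and applied preemergence to planted seeds or postemergence to sugarcane plants. Plants were kept in a greenhouse for 14 to 21 days, then visually evaluated against controls.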
# common ragweed [1] = test: Test F preemergence test; assay type: in vivo, Ambrosia elation; conditions: scale 0 to 100
# In short: as §2
# broadleaf signalgrass = test: Test F preemergence test; assay type: in vivo, Brachiaria platyphylla; conditions: scale 0 to 100
# In short: as §2
# purple nutsedge = test: Test F preemergence test; assay type: in vivo, Cyperus rotundus; conditions: scale 0 to 100
# In short: as §2
# itchgrass = test: Test F preemergence test; assay type: in vivo, Rottboellia cochinchinensis; conditions: scale 0 to 100
# In short: as §2
# bermudagrass = test: Test F preemergence test; assay type: in vivo, Cynodon dactylon; conditions: scale 0 to 100
# In short: as §2
# prickly sida = test: Test F preemergence test; assay type: in vivo, Sida spinosa; conditions: scale 0 to 100
# In short: as §2
# green foxtail = test: Test F preemergence test; assay type: in vivo, Setaria viridis; conditions: scale 0 to 100
# In short: as §2
# crabgrass = test: Test A pre-/postemergence greenhouse test; assay type: in vivo, Digitaria sanguinalis; conditions: for Crabgrass, Large plant response rating: 0 to 100 scale; for Plant response rating, Crabgrass, Large: 0 to 100 scale where 0 is no effect and 100 is complete control
# In short: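 Visual injury ratings, made relative to untreated controls roughly ten days after treatment, cover both preemergence and postemergence application. Compounds in a surfactant-containing non-phytotoxic solvent were sprayed onto the soil surface after sowing and, simultaneously, onto young plants at the one- to two-leaf stage.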
# pitted morningglory = test: Test F preemergence test; assay type: in vivo, Ipomoea lacunosa; conditions: scale 0 to 100
# In short: as §2
# kochia = test: Test C pre-/postemergence test; assay type: in vivo, Kochia scoparia; conditions: for Plant response rating, Kochia: 31 g ai/ha, scale 0 to 100 (0 no effect, 100 complete control)
# In short: as §1
# common ragweed [2] = test: Test C pre-/postemergence test; assay type: in vivo, Ambrosia elation; conditions: for Plant response rating, Ragweed: 31 g ai/ha, scale 0 to 100 (0 no effect, 100 complete control)
# In short: as §1
# goosegrass = test: Test F preemergence test; assay type: in vivo, Eleusine indica; conditions: scale 0 to 100
# In short: as §2
# [3] = 62 g ai/ha, Preemergence, scale 0 to 100
# [4] = Postemergence, 500 g ai/ha, 0 is no effect, 100 is complete control
# [5] = Preemergence, 125 g ai/ha, 0 no effect, 100 complete control
# [6] = 125 g ai/ha, preemergence, scale 0 (no effect) to 100 (complete control)
# [7] = preemergence, 250 g ai/ha, scale 0 (no effect) to 100 (complete control)
structure (smiles),measurement,setting,value
Cc1cc[n+]([O-])c([S+]([O-])Cc2c(C(F)(F)F)nn(C)c2Cl)c1 (racemic) [Compound 20],"Nutsedge, Yellow plant response rating",yellow nutsedge; [3],10
same,"Plant response rating, Nutsedge, Yellow",yellow nutsedge; Preemergence,0
same,"Plant response rating, Crabgrass, Naked","naked crabgrass; 8 g ai/ha, preemergence",75
same,"Crabgrass, Naked plant response rating","naked crabgrass; 62 g ai/ha, Preemergence",95
same,"Plant response rating, Crabgrass, Naked","naked crabgrass; Preemergence, 16 g ai/ha",75
same,"Plant response rating, Crabgrass, Naked","naked crabgrass; Preemergence, 31 g ai/ha",80
same,"Plant response rating, Ragweed","common ragweed [1]; 8 g ai/ha, preemergence",0
same,Ragweed plant response rating,"common ragweed [1]; 62 g ai/ha, Preemergence",25
same,"Plant response rating, Ragweed","common ragweed [1]; Preemergence, 16 g ai/ha",0
same,"Plant response rating, Ragweed","common ragweed [1]; Preemergence, 31 g ai/ha",0
same,"Plant response rating, Signalgrass","broadleaf signalgrass; 8 g ai/ha, preemergence",50
same,"Plant response rating, Signalgrass","broadleaf signalgrass; 16 g ai/ha, preemergence",35
same,Signalgrass plant response rating,"broadleaf signalgrass; 62 g ai/ha, Preemergence",75
same,"Plant response rating, Signalgrass","broadleaf signalgrass; Preemergence, 31 g ai/ha",65
same,"Plant response rating, Purple Nutsedge","purple nutsedge; 8 g ai/ha, preemergence",0
same,Purple Nutsedge plant response rating,"purple nutsedge; 62 g ai/ha, Preemergence",25
same,"Plant response rating, Purple Nutsedge","purple nutsedge; Preemergence, 16 g ai/ha",0
same,"Plant response rating, Purple Nutsedge","purple nutsedge; Preemergence, 31 g ai/ha",0
same,"Plant response rating, Itchgrass","itchgrass; 8 g ai/ha, preemergence",0
same,Itchgrass plant response rating,"itchgrass; 62 g ai/ha, Preemergence",70
same,"Plant response rating, Itchgrass","itchgrass; Preemergence, 16 g ai/ha",0
same,"Plant response rating, Itchgrass","itchgrass; Preemergence, 31 g ai/ha",15
same,"Plant response rating, Bermudagrass","bermudagrass; 8 g ai/ha, preemergence",15
same,Bermudagrass plant response rating,"bermudagrass; 62 g ai/ha, Preemergence",50
same,"Plant response rating, Bermudagrass","bermudagrass; Preemergence, 16 g ai/ha",20
same,"Plant response rating, Bermudagrass","bermudagrass; Preemergence, 31 g ai/ha",50
same,"Plant response rating, Prickly Sida","prickly sida; 8 g ai/ha, preemergence",0
same,Prickly Sida plant response rating,"prickly sida; 62 g ai/ha, Preemergence",60
same,"Plant response rating, Prickly Sida","prickly sida; Preemergence, 16 g ai/ha",0
same,"Plant response rating, Prickly Sida","prickly sida; Preemergence, 31 g ai/ha",20
same,"Plant response rating, Foxtail, Green","green foxtail; 8 g ai/ha, preemergence",0
same,"Foxtail, Green plant response rating","green foxtail; 62 g ai/ha, Preemergence",75
same,"Plant response rating, Foxtail, Green","green foxtail; Preemergence, 16 g ai/ha",10
same,"Plant response rating, Foxtail, Green","green foxtail; Preemergence, 31 g ai/ha",40
same,"Crabgrass, Large plant response rating","crabgrass; Postemergence, 125 g ai/ha, 0 is no effect, 100 is complete control",40
same,"Crabgrass, Large plant response rating",crabgrass; [4],80
same,"Crabgrass, Large plant response rating",crabgrass; [5],80
same,"Plant response rating, Crabgrass, Large","crabgrass; Preemergence, 500 g ai/ha",100
same,"Plant response rating, Morningglory","pitted morningglory; 8 g ai/ha, preemergence",0
same,Morningglory plant response rating,"pitted morningglory; 62 g ai/ha, Preemergence",40
same,"Plant response rating, Morningglory","pitted morningglory; Preemergence, 16 g ai/ha",0
same,"Plant response rating, Morningglory","pitted morningglory; Preemergence, 31 g ai/ha",15
same,Kochia plant response rating,kochia; [3],100
same,"Plant response rating, Kochia",kochia; Preemergence,0
same,"Plant response rating, Ragweed",common ragweed [2]; Preemergence,0
same,"Plant response rating, Goosegrass","goosegrass; 8 g ai/ha, preemergence",0
same,Goosegrass plant response rating,"goosegrass; 62 g ai/ha, Preemergence",75
same,"Plant response rating, Goosegrass","goosegrass; Preemergence, 16 g ai/ha",15
same,"Plant response rating, Goosegrass","goosegrass; Preemergence, 31 g ai/ha",60
CCn1nc(C(F)(F)F)c(CS(=O)(=O)c2cccc[n+]2[O-])c1OCC(F)(F)F [Compound 63],"Nutsedge, Yellow plant response rating",yellow nutsedge; [3],50
same,"Nutsedge, Yellow plant response rating",yellow nutsedge; [6],55
same,"Plant response rating, Nutsedge, Yellow",yellow nutsedge; Preemergence,0
same,"Nutsedge, Yellow plant response rating",yellow nutsedge; [7],98
same,"Plant response rating, Crabgrass, Naked","naked crabgrass; 16 g ai/ha, preemergence",70
same,"Crabgrass, Naked plant response rating","naked crabgrass; 62 g ai/ha, Preemergence",100
same,"Crabgrass, Naked plant response rating","naked crabgrass; 125 g ai/ha, preemergence",100
same,"Plant response rating, Crabgrass, Naked","naked crabgrass; Preemergence, 31 g ai/ha",70
same,"Plant response rating, Ragweed","common ragweed [1]; 16 g ai/ha, preemergence",0
same,Ragweed plant response rating,"common ragweed [1]; 125 g ai/ha, preemergence",100
same,"Plant response rating, Ragweed","common ragweed [1]; Preemergence, 62 g ai/ha",90
same,"Plant response rating, Ragweed","common ragweed [1]; Preemergence, 31 g ai/ha",40
same,"Plant response rating, Signalgrass","broadleaf signalgrass; 16 g ai/ha, preemergence",15
same,Signalgrass plant response rating,"broadleaf signalgrass; 125 g ai/ha, preemergence",100
same,"Plant response rating, Signalgrass","broadleaf signalgrass; Preemergence, 62 g ai/ha",100
same,"Plant response rating, Signalgrass","broadleaf signalgrass; Preemergence, 31 g ai/ha",40
same,"Plant response rating, Purple Nutsedge","purple nutsedge; 16 g ai/ha, preemergence",0
same,Purple Nutsedge plant response rating,"purple nutsedge; 62 g ai/ha, Preemergence",65
same,Purple Nutsedge plant response rating,"purple nutsedge; 125 g ai/ha, preemergence",75
same,"Plant response rating, Purple Nutsedge","purple nutsedge; Preemergence, 31 g ai/ha",15
same,"Plant response rating, Itchgrass","itchgrass; 16 g ai/ha, preemergence",10
same,Itchgrass plant response rating,"itchgrass; 62 g ai/ha, Preemergence",80
same,Itchgrass plant response rating,"itchgrass; 125 g ai/ha, preemergence",90
same,"Plant response rating, Itchgrass","itchgrass; Preemergence, 31 g ai/ha",50
same,"Plant response rating, Bermudagrass","bermudagrass; 16 g ai/ha, preemergence",50
same,Bermudagrass plant response rating,"bermudagrass; 62 g ai/ha, Preemergence",95
same,Bermudagrass plant response rating,"bermudagrass; 125 g ai/ha, preemergence",100
same,"Plant response rating, Bermudagrass","bermudagrass; Preemergence, 31 g ai/ha",80
same,"Plant response rating, Prickly Sida","prickly sida; 16 g ai/ha, preemergence",20
same,Prickly Sida plant response rating,"prickly sida; 62 g ai/ha, Preemergence",65
same,Prickly Sida plant response rating,"prickly sida; 125 g ai/ha, preemergence",90
same,"Plant response rating, Prickly Sida","prickly sida; Preemergence, 31 g ai/ha",65
same,"Plant response rating, Foxtail, Green","green foxtail; 16 g ai/ha, preemergence",65
same,"Foxtail, Green plant response rating","green foxtail; 62 g ai/ha, Preemergence",90
same,"Foxtail, Green plant response rating","green foxtail; 125 g ai/ha, preemergence",100
same,"Plant response rating, Foxtail, Green","green foxtail; Preemergence, 31 g ai/ha",80
same,"Plant response rating, Crabgrass, Large","crabgrass; Postemergence, 125 g ai/ha",60
same,"Crabgrass, Large plant response rating",crabgrass; [4],90
same,"Crabgrass, Large plant response rating",crabgrass; [5],80
same,"Plant response rating, Crabgrass, Large","crabgrass; Preemergence, 500 g ai/ha",100
same,"Plant response rating, Morningglory","pitted morningglory; 16 g ai/ha, preemergence",0
same,Morningglory plant response rating,"pitted morningglory; 62 g ai/ha, Preemergence",0
same,Morningglory plant response rating,"pitted morningglory; 125 g ai/ha, preemergence",35
same,"Plant response rating, Morningglory","pitted morningglory; Preemergence, 31 g ai/ha",0
same,Kochia plant response rating,kochia; [3],100
same,Kochia plant response rating,kochia; [6],100
same,"Plant response rating, Kochia",kochia; Preemergence,100
same,Kochia plant response rating,kochia; [7],100
same,Ragweed plant response rating,common ragweed [2]; [3],100
same,Ragweed plant response rating,common ragweed [2]; [6],100
same,"Plant response rating, Ragweed",common ragweed [2]; Preemergence,90
same,Ragweed plant response rating,common ragweed [2]; [7],100
same,"Plant response rating, Goosegrass","goosegrass; 16 g ai/ha, preemergence",80
same,Goosegrass plant response rating,"goosegrass; 62 g ai/ha, Preemergence",98
same,Goosegrass plant response rating,"goosegrass; 125 g ai/ha, preemergence",100
same,"Plant response rating, Goosegrass","goosegrass; Preemergence, 31 g ai/ha",90
